Like-named read-outs stand apart in the source and are kept apart here.
What was measured:
IDO1 [1] = biological target: T1, IDO1 (Homo sapiens, UniProt P14902); assay: Kyn assay in BxPC-3 cells (Kyn levels after IFN-γ and Trp); format: cell-based; conditions: for activity in the cell-based kynurenine assay: result in words;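 for all read-outs here: kyn levels expressed relative to DMSO-treated control cells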
T1 construct: BxPC3 cells were seeded in phenol red-free RPMI 1640 medium; endogenous in cells; host or cells: BxPC3 cells stimulated with IFN-γ (50 ng/mL)
Experimental: BxPC3 cells were seeded in phenol red-free RPMI 1640 medium in 1536-well or 384-well plates (Greiner #782086, Corning #3770) 24 h prior to the addition of compounds, IFN-γ (50 ng/mL, PeproTech) and L-Trp (380 µM, Sigmal-Aldrich). After 48 h of incubation, first cell viability was accessed by the addition of Hoechst-33342. Afterwards, trichloroacetic acid (TCA, Sigma-Aldrich) was added to a final concentration of 7 % and incubated for 10 min prior to a centrifugation step of 10 min at 1620 × g. Kyn levels were determined by means of the Kyn sensor^7 at a final concentration of 17.5 µM in sensor buffer (50 mM H3PO4 and 120 mM NaCl (pH=1)). Fluorescence intensity (excitation: 535 nm, emission: 595 nm) was measured using a Spectramax Paradigm reader (Molecular Devices). Data were normalized to the values for cells that were treated with DMSO.
For the manual assay, BxPC3 or SKOV3 cells were seeded in clear 96-well or 384-well plates, respectively, 24 h prior to compound treatment and IFN-γ (50 or 5 ng/mL, respectively) and L-Trp (380 µM) addition as described before.^7 48 h after treatment, TCA was added and Kyn levels were detected by means of 2 % w/v of p-DMAB (Ehrlich reagent) in acetic acid as described by Braun et al^29. The absorbance of the Ehrlich reagent was detected at 492 nm and at 650 nm as background control was measured on Spark® multimode microplate plate reader (Tecan, Austria). Kyn levels were determined by subtracting the absorbance value at 650 nm and presented relative to the DMSO control. Dose-response curves and IC50 values were generated and fitted with GraphPad Prism 6.0 (GraphPad software, USA) using four-parameter variable slope non-linear regression curve fit.
Cells were incubated with IFN-γ, Trp and the compounds for 48 h prior to detection of Kyn levels.

[2] = biological target: T2, recombinant human IDO1 (rhIDO1) (Homo sapiens, UniProt P14902); assay: IDO1 enzymatic assay with recombinant protein, Kyn detection with p-DMAB; format: biochemical; conditions: pre-incubated with compounds at 37°C for 40 min; for inhibition at 59 µM: in vitro inhibition at 59 uM; for IC50: determined if inhibition at 59 µM was higher than 50%, read-out: rhIDO1 enzymatic activity IC50 ± SD
T2 construct: Full-length rhIDO protein (1 µM) in 50 mM potassium phosphate buffer; GST (cleaved yes); made in house; host or cells: E. coli
From the text: Reduction of the kynurenine level in the cell-based model employed for initial SAR exploration can be due to inhibition of enzymatic activity, degradation of IDO1, or both (Table B-2). In order to differentiate between these different activities, we explored the modes of action of selected compounds in an in vitro assay employing recombinant human IDO1 (rhIDO1) monitoring enzymatic activity only, and we characterized the degradation efficiency by means of Western blotting, determining maximum degradation levels at 0.1µM (Dmax) and half maximum degradation concentration (DC50) (Table B-2). Table B-2 in vitro inhibition and degradation of IDO1 by selected compounds. […] Data are mean values ± SD (n = 4, except for compounds 1, 11, and 19 (n=2)). […] Data are mean values of n biological replicates. Dmax corresponds to maximum levels of IDO1 degradation at 0.1 µM.
Full-length rhIDO protein (1 µM) in 50 mM potassium phosphate buffer (50 mM KH2PO4 and 50 mM K2HPO4, pH 6.5) was incubated with the respective compounds for 40 min at 37 °C prior to the addition of 10 mM ascorbic acid, 10 µM methylene blue, 2 mM Trp and 100 µg/mL catalase (Sigma-Aldrich, C100). Samples were incubated for 60 min followed by the addition of trichloroacetic acid to a final concentration of 7 % and further incubation for 30 min at 37 °C. Kyn levels were detected by the addition of an equal volume of 2 % (w/v) p-DMAB in acetic acid and absorbance was measured at 492 nm and 650 nm as a background control. Values are presented relative to the DMSO control. Dose-response curves and IC50 values were generated and fitted with GraphPad Prism 6.0 (GraphPad software, USA) using four-parameter variable slope non-linear regression curve fit.

IDO1 [3] = biological target: T1, IDO1; assay: IDO1 degradation in BxPC3 cells, IDO1 protein levels by immunoblotting; format: cell-based; conditions: for Dmax at 0.1 µM: BXPC-3, BxPC3 cells; for Dmax at 0.1 µM / Dmax [%] (n): 50 ng/ml IFN-γ 24 h, washout, compound (100 nM) 24 h, maximum IDO1 degradation at 0.1 µM;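 for all read-outs here: IDO1 bands on Western blots detected with fluorescent dye-labelled secondary antibodies and quantified by band intensity, values are means of n biological replicates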
Experimental: To analyze IDO1 levels, IFN-γ-stimulated BxPC3 cells (50 ng/mL IFN-γ), U2OS cells (5 ng/mL IFN-γ), HEK^rhIDO1 (HEK293T cells electroporated with rhIDO1), SKOV3 and BT549 cells were treated with compounds for the indicated times (6 h to 24 h) followed by cell lysis (150 mM sodium chloride in 50 mM Tris (pH 8.0) and 1% NP-40 Alternative, protease and phosphatase inhibitors). Protein concentrations were determined (DC protein assay, Bio-Rad) followed by addition of 1 × SDS loading buffer and protein separation by a 10% SDS-PAGE. Separated protein samples were transferred to a polyvinylidene difluoride (PVDF) membrane using a wet-tank blotting system (Bio-Rad). IDO1 as well as vinculin as a loading were detected using the primary antibodies anti-IDO1 (ab211017, abcam or 14-9750-80, Thermo Fisher), anti-vinculin (V9131, Thermo Fisher) and anti-β-actin (ab8227, abcam) in 5 % milk in PBS-buffered saline with 0.05 % (v/v) Tween-20 (PBS-T). Primary antibodies were incubated at 4°C overnight and detected with IRDye-conjugated secondary antibodies (LI-COR Biosciences). IDO1 protein level in BT549 and SKOV3 cells was detected with HRP conjugated secondary antibody and SuperSignal™ West Dura Extended Duration Substrat (Thermo Fisher Scientific). Washing steps were performed with PBS-T. Protein bands were visualized by ChemiDoc™ MP (Bio-Rad) using a fluorescent readout. Band intensities were quantified using Image Lab software.
In order to differentiate between these different activities, we explored the modes of action of selected compounds in an in vitro assay employing recombinant human IDO1 (rhIDO1) monitoring enzymatic activity only, and we characterized the degradation efficiency by means of Western blotting, determining maximum degradation levels at 0.1µM (Dmax) and half maximum degradation concentration (DC50) (Table B-2). […] Data are mean values of n biological replicates. Dmax corresponds to maximum levels of IDO1 degradation at 0.1 µM.

apo-IDO1 = biological target: T3, apo-IDO1 (Homo sapiens, UniProt P14902); assay: Pulse-chase ubiquitination assay of apo-IDO1 by CRL2^KLHDC3; format: biochemical; conditions: apo-IDO1 incubated with compounds (30 µM) for 90 min at 37°C; Fig. 3j
T3 construct: For the ubiquitination assays, IDO1 (residues 5-C) was cloned into a pRSF Duet based vector; His-TEV (N); made in house; host or cells: IDO1: host not restated ('purified as described above', which points to E. coli); KLHDC3-EloB/C: Hi5 insect cells

[4] = BxPC-3 cells incubated with IFN-γ, Trp and the compounds for 48 h, read-out: Kyn assay IC50 ± SD

T1 sequence (P14902 whole entry): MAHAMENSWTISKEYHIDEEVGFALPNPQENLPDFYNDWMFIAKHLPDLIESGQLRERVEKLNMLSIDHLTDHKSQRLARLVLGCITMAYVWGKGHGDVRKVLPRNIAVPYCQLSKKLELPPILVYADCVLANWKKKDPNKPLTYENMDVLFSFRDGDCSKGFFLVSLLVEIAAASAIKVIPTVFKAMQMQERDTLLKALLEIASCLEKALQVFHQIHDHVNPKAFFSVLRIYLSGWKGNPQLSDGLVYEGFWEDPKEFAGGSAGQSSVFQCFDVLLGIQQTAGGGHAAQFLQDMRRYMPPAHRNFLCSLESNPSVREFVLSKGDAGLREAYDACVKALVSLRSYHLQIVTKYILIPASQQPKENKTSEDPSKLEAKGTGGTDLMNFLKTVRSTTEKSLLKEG
T2 sequence (P14902 whole entry): as above
T3 sequence (P14902 5-403 limits assumed): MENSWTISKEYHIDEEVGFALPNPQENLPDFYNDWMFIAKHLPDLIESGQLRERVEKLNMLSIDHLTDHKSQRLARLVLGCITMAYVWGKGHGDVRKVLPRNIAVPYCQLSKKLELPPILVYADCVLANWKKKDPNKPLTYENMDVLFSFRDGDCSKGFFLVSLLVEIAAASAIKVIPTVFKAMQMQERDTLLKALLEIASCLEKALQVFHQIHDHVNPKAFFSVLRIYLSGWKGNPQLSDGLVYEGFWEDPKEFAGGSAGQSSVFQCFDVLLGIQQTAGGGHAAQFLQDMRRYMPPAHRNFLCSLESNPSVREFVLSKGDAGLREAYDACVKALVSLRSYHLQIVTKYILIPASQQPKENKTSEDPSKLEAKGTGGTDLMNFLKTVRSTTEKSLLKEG

Row | IC50 (IDO1 [1]; [4]) [nM] | activity in the cell-based kynurenine assay (IDO1 [1]) | inhibition at 59 µM [2] [%] | Dmax at 0.1 µM (IDO1 [3]) [%] | Dmax [%] (n) (IDO1 [3]; BxPC3 cells) | IC50 [2] [nM] | IDO1 ubiquitination by CRL2^KLHDC3 (apo-IDO1) | SMILES | IC50 (IDO1 [1]; read-out: IC50 value in the Kyn assay, Kyn assay) [nM] | IC50 (IDO1 [1]; read-out: Kyn assay IC50 ± SD, BxPC-3 cells incubated with IFN-γ, Trp and the compounds for 48 h) [nM] | DC50 ± SD [nM] (IDO1 [3]; half-maximal degradation concentration, BxPC3 cells, immunoblotting)
1 | < 200 | low nanomolar range | 48 ± 6 | > 60 | 65 ± 10(14) % | – | – | Cc1cc(C(C)(C)C)ccc1S(=O)(=O)N1C[C@H]2C[C@H]3C[C@H](C3(C)C)[C@@]2(COC(=O)Nc2ccc(I)cc2)C1 [compound 52, ((3aS,4R,6R,7aS)-2-((4-(tert-butyl)-2-methylphenyl)sulfonyl)-5,5-dimethyloctahydro-3aH-4,6-methanoisoindol-3a-yl)methyl (4-iodophenyl)carbamate] | – | – | –
2 | < 200 | – | 37 ± 9 | 55 to 59 | 56 ± 4 (3) % | – | – | CCc1cc(C(C)(C)C)ccc1S(=O)(=O)N1C[C@H]2C[C@H]3C[C@H](C3(C)C)[C@@]2(COC(=O)Nc2ccc(I)cc2)C1 [compound 53, ((3aS,4R,6R,7aS)-2-((4-(tert-butyl)-2-ethylphenyl)sulfonyl)-5,5-dimethyloctahydro-3aH-4,6-methanoisoindol-3a-yl)methyl (4-iodophenyl)carbamate] | – | – | –
3 | < 200 | – | 35 ± 2 | 55 to 59 | 55 ± 4 (3) % | – | – | CC(C)(C)c1ccc(S(=O)(=O)N2C[C@H]3C[C@H]4C[C@H](C4(C)C)[C@@]3(COC(=O)Nc3ccc(I)cc3)C2)c(C2CC2)c1 [compound 54, ((3aS,4R,6R,7aS)-2-((4-(tert-butyl)-2-cyclopropylphenyl)sulfonyl)-5,5-dimethyl-octahydro-3aH-4,6-methanoisoindol-3a-yl)methyl (4-iodophenyl)carbamate] | – | – | –
4 | < 200 | – | 12 ± 7 | 55 to 59 | 56 ± 4 (3) % | – | – | CC(C)(C)c1ccc(S(=O)(=O)N2C[C@H]3C[C@H]4C[C@H](C4(C)C)[C@@]3(COC(=O)Nc3ccc(I)cc3)C2)c(Br)c1 [compound 56, ((3aS,4R,6R,7aS)-2-((2-bromo-4-(tert-butyl)phenyl)sulfonyl)-5,5-dimethyloctahydro-3aH-4,6-methanoisoindol-3a-yl)methyl (4-iodophenyl)carbamate] | – | – | –
5 | < 200 | – | 67 ± 6 | 36 to 46 | 36 ± 2 (3) % | 1900 ± 500 | – | CC(C)(CC(=O)O)c1ccc(S(=O)(=O)N2C[C@H]3C[C@H]4C[C@H](C4(C)C)[C@@]3(COC(=O)Nc3ccc(I)cc3)C2)cc1 [compound 63, 3-(4-(((3aS,4R,6R,7aS)-3a-((((4-iodophenyl)carbamoyl)oxy)methyl)-5,5-dimethyloctahydro-2H-4,6-methanoisoindol-2-yl)sulfonyl)phenyl)-3-methylbutanoic acid] | – | – | –
6 | < 200 | low nanomolar range | 72 ± 4 | 36 to 46 | 46 ± 21 (5) % | 820 ± 140 | – | CC(C)(C(=O)O)c1ccc(S(=O)(=O)N2C[C@H]3C[C@H]4C[C@H](C4(C)C)[C@@]3(COC(=O)Nc3ccc(I)cc3)C2)cc1 [compound 65, 2-(4-(((3aS,4R,6R,7aS)-3a-((((4-iodophenyl)carbamoyl)oxy)methyl)-5,5-dimethyloctahydro-2H-4,6-methanoisoindol-2-yl)sulfonyl)phenyl)-2-methylpropanoic acid] | – | – | –
7 | < 200 | – | 55 ± 2 | 20 ± 12 | – | 270 ± 20 | – | CC(C)(C(=O)O)c1ccc(S(=O)(=O)N2C[C@H]3C[C@H]4C[C@H](C4(C)C)[C@@]3(COC(=O)Nc3ccc(I)cc3)C2)c(Cl)c1 [compound 69, 2-(3-chloro-4-(((3aS,4R,6R,7aS)-3a-((((4-iodophenyl)carbamoyl)oxy)methyl)-5,5-dimethyloctahydro-2H-4,6-methanoisoindol-2-yl)sulfonyl)phenyl)-2-methylpropanoic acid] | – | – | –
8 | < 200 | – | 62 ± 1 | 18 ± 19 | – | 110 ± 20 | – | Cc1cc(C(C)(C)C(=O)O)ccc1S(=O)(=O)N1C[C@H]2C[C@H]3C[C@H](C3(C)C)[C@@]2(COC(=O)Nc2ccc(I)cc2)C1 [compound 70, 2-(4-(((3aS,4R,6R,7aS)-3a-((((4-iodophenyl)carbamoyl)oxy)methyl)-5,5-dimethyloctahydro-2H-4,6-methanoisoindol-2-yl)sulfonyl)-3-methylphenyl)-2-methylpropanoic acid] | – | – | –
9 | – | – | 30 ± 5 | 74 ± 13 | – | – | ubiquitinated | C#Cc1ccc(NC(=O)OC[C@]23CN(S(=O)(=O)c4ccc(C(C)(C)C)cc4C)C[C@H]2C[C@H]2C[C@@H]3C2(C)C)cc1 [compound 71, ((3aS,4R,6R,7aS)-2-((4-(tert-butyl)-2-methylphenyl)sulfonyl)-5,5-dimethylocta-hydro-3aH-4,6-methanoisoindol-3a-yl)methyl (4-ethynylphenyl)carbamate] | – | – | –
10 | < 200 | low nanomolar range | 78 ± 3 | 54 ± 8 | – | 310 ± 60 | – | C#Cc1ccc(NC(=O)OC[C@]23CN(S(=O)(=O)c4ccc(C(C)(C)C(=O)O)cc4)C[C@H]2C[C@H]2C[C@@H]3C2(C)C)cc1 [compound 74, 2-(4-(((3aS,4R,6R,7aS)-3a-((((4-ethynylphenyl)carbamoyl)oxy)methyl)-5,5-dimethyloctahydro-2H-4,6-methanoisoindol-2-yl)sulfonyl)phenyl)-2-methylpropanoic acid] | – | – | –

Row | SMILES | IC50 (IDO1 [1]; [4]) [nM] | activity in the cell-based kynurenine assay (IDO1 [1]) | inhibition at 59 µM [2] [%] | Dmax at 0.1 µM (IDO1 [3]) [%] | Dmax [%] (n) (IDO1 [3]; BxPC3 cells) | IC50 [2] [nM] | IDO1 ubiquitination by CRL2^KLHDC3 (apo-IDO1) | IC50 (IDO1 [1]; read-out: IC50 value in the Kyn assay, Kyn assay) [nM] | IC50 (IDO1 [1]; read-out: Kyn assay IC50 ± SD, BxPC-3 cells incubated with IFN-γ, Trp and the compounds for 48 h) [nM] | DC50 ± SD [nM] (IDO1 [3]; half-maximal degradation concentration, BxPC3 cells, immunoblotting)
11 | C#Cc1ccc(NC(=O)OC[C@]23CN(S(=O)(=O)c4ccc(C(C)(C)C)cc4CC)C[C@H]2C[C@H]2C[C@@H]3C2(C)C)cc1 [compound 72, ((3aS,4R,6R,7aS)-2-((4-(tert-butyl)-2-ethylphenyl)sulfonyl)-5,5-dimethylocta-hydro-3aH-4,6-methanoisoindol-3a-yl)methyl(4-ethynylphenyl) carbamate] | – | – | 62 ± 5 | – | 75% | – | – | 11 | < 200 | low nanomolar range

Source: patent EP4670717A1, “PYRROLIDINE-FUSED MYRTANOL DERIVATIVES AS INHIBITORS AND/OR DEGRADERS OF IDO1 UND USE THEREOF” (Max-Planck-Gesellschaft zur Förderung der Wissenschaften …, priority 2024, dated 2025)
